Data reported in ChEMBL document CHEMBL4616670, “Phosphine Oxides from a Medicinal Chemist's Perspective: Physicochemical and in Vitro Parameters Relevant for Drug Discovery” (J Med Chem, 2020).
Values after ≈ are worked out from the molar mass of the structure shown.

Key:
[1] = in vitro; settings: human, Caco-2
Description: Efflux ratio of permeability in human Caco2 cells measured up to 2 hrs by LC-MS/MS analysis or scintillation counting method

[2] = physchem; settings: pH 6.8 buffer
[3] = physchem; settings: octanol/water, pH 2
Description: Octanol/water partition coefficient, log D of the compound at pH 2

[4] = physchem; settings: octanol/water, pH 11
Description: Octanol/water partition coefficient, log D of the compound at pH 11

[5] = in vitro; settings: human, liver microsomes
Description: Stability in human liver microsomes at 1 uM incubated prior to NADPH addition by LC-MS/MS analysis relative to hepatic blood flow

[6] = in vitro; settings: human, Caco-2; remark: listed apart in the source
Description: Permeability across apical to basolateral side in human Caco2 cells measured up to 2 hrs by LC-MS/MS analysis or scintillation counting method

[7] = in vitro; settings: human, liver microsomes; remark: listed apart in the source
Description: Half life in human liver microsomes at 1 uM incubated prior to NADPH addition by LC-MS/MS analysis

[8] = physchem; settings: pH 6.8 buffer; remark: listed apart in the source
[9] = Basic dissociation constant, pKb of the compound by UV absorption spectra analysis or potentiometric titration technique; format: physicochemical
[10] = 168 h
Description: Chemical stability of the compound in MeOH/NH3 solution at pH >10 assessed as compound decomposition measured after 7 days by UV-RP-HPLC analysis

[11] = physchem; settings: MeOH/HCl solution
Description: Chemical stability of the compound in MeOH/HCl solution at pH <1 assessed as compound decomposition measured after 7 days by UV-RP-HPLC analysis

efflux ratio at 2 h [1] | solubility thermodynamic at 24 h [2] [µg/mL] | logD [3] | logD [4] | hepatic extraction ratio at 1 µM [5] | Papp A→B at 2 h [6] [×10⁻⁶ cm/s] | half-life at 1 µM [7] [h] | solubility thermodynamic at 24 h [8] [µg/mL] | pKb [9] | Drug degradation [10] [%] | degraded at 168 h [11] [%] | SMILES
0.8 | 49 (≈ 184 µM) | 2.2 | 2.9 |  | 70 |  | 1200 (≈ 4510 µM) |  |  |  | CN=S(=O)(c1ccc(C(F)(F)F)cc1)N(C)C (stereo unspecified)
0.9 | > 51 | 1.9 | 1.6 |  | 56 |  | 200 (≈ 984 µM) |  |  |  | CNC(=O)c1ccc(C(F)(F)F)cc1
0.9 | > 54 | 0.8 | 1 |  | 70 |  | 6900 (≈ 29000 µM) | 2.4 |  |  | CNS(=N)(=O)c1ccc(C(F)(F)F)cc1 (stereo unspecified)
0.7 | 14 (≈ 57.1 µM) | 3.8 | 3.7 |  | 56 |  | 10 (≈ 40.8 µM) |  |  |  | CC(C)(C)NC(=O)c1ccc(C(F)(F)F)cc1
0.5 | > 61 | 3.1 | 2.8 | < 0.23 | 110 | > 2.17 | 22200 (≈ 79800 µM) |  | < 10 | < 10 | CC(C)P(=O)(c1ccc(C(F)(F)F)cc1)C(C)C
1 | > 44 | 1.5 |  |  | 68 |  | 300 (≈ 1590 µM) |  |  |  | NC(=O)c1ccc(C(F)(F)F)cc1
0.5 | > 52 | 1.5 | 1.1 | < 0.23 | 82 | > 2.17 | > 30000 |  | < 10 | < 10 | CP(C)(=O)c1ccc(C(F)(F)F)cc1
0.7 | > 59 | 2 | 1.7 | < 0.23 | 69 | > 2.17 | 24500 (≈ 98700 µM) |  | < 10 | < 10 | O=P1(c2ccc(C(F)(F)F)cc2)CCCC1

The remaining lines, values behind:

SMILES | efflux ratio at 2 h [1] | solubility thermodynamic at 24 h [2] [µg/mL] | logD [3] | logD [4] | hepatic extraction ratio at 1 µM [5] | Papp A→B at 2 h [6] [×10⁻⁶ cm/s] | half-life at 1 µM [7] [h] | solubility thermodynamic at 24 h [8] [µg/mL] | pKb [9] | Drug degradation [10] [%] | degraded at 168 h [11] [%]
Cc1ccc(NC(=O)c2ccc(C(N)=O)cc2)cc1Nc1nccc(-c2cccnc2)n1 | 8.1 | < 1 | 0.4 | 1.5 | 0.25 | 3 | 1.95 |  |  |  | 
O=S1(c2ccc(C(F)(F)F)cc2)=NCCCC1 (stereo unspecified) | 0.7 | > 59 | 0.1 | 1.8 |  | 84 |  | 4700 (≈ 17900 µM) | 3.8 |  | 
CCOC(=O)c1ccc(C(=O)Nc2ccc(C)c(Nc3nccc(-c4cccnc4)n3)c2)cc1 |  | < 1 | 1.9 | 3.5 | > 0.88 |  | < 0.0833 |  |  |  | 
Cc1ccc(NC(=O)c2ccc(C(=O)N(C)C)cc2)cc1Nc1nccc(-c2cccnc2)n1 | 2.2 | < 1 | 0.7 | 2 | 0.37 | 19 | 1.12 |  |  |  | 
CCP(=O)(CC)c1ccncc1 | 0.6 | > 46 | < -1.8 | -1 | < 0.23 | 19 | > 2.17 | 11600 (≈ 63300 µM) |  |  | 
CCOP(C)(=O)c1ccncc1 (stereo unspecified) | 0.6 | > 45 | -1.1 | -0.7 | < 0.23 | 54 | > 2.17 | > 30000 |  |  | 
CNC(=O)c1ccc(C(=O)Nc2ccc(C)c(Nc3nccc(-c4cccnc4)n3)c2)cc1 | 4.9 | < 1 | 0.5 | 1.7 | < 0.23 | 8 | > 2.17 |  |  |  | 
CCOP(C)(=O)c1ccc(C(=O)Nc2ccc(C)c(Nc3nccc(-c4cccnc4)n3)c2)cc1 (stereo unspecified) | 9.9 | 51 (≈ 105 µM) | 0.9 | 2.2 | 0.45 | 5 | 0.8 |  |  |  | 
O=P1(c2ccc(C(F)(F)F)cc2)CCOCC1 | 0.7 | > 65 | 1.4 | 1.1 | < 0.23 | 65 | > 2.17 | > 30000 |  | < 10 | < 10
O=P1(c2ccc(C(F)(F)F)cc2)CCCCC1 | 1.1 | > 66 | 2.4 | 2 | < 0.23 | 49 | > 2.17 | 7700 (≈ 29400 µM) |  | < 10 | < 10
